The values that follow come from patent publication US11866405B2, “Substituted indazoles as IRAK4 inhibitors” (AstraZeneca AB, priority 2020, dated 2024).

Where two headings read alike, the source gives them in different places.

Type in all cases: cell-based
In experiment [1] the target is IRAK4 auto-phosphorylation (Homo sapiens (Human), UniProt Q9NWZ3). Nature of the experiment: IRAK4 phosphorylation cell assay in IL-1β-stimulated Karpas-299 cells. The conditions noted are these: IL-1β 22.7 ng/mL, pIRAK4 (Thr345/Ser346), geometric mean of at least 2 experiments. The method in brief: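 Karpas-299 cells were preincubated 1 h at 37 °C with compound (10-point half-log series, top 30 μM), then stimulated 10 min with 22.7 ng/mL IL-1β. Cells were fixed and stained for pIRAK4 (Thr345/Ser346), and per-cell fluorescence was quantified by high-content imaging. IC50 values are geometric means of at least 2 experiments.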

Experiment [2] concerns human PBMCs stimulated with LPS. Nature of the experiment: LPS-induced cytokine release in human PBMCs. The conditions noted are these: PBMC, 0.11 ng/mL LPS, 4 h. An excerpt: (§1) In Vitro Effect of IRAK4 Inhibitors on LPS- and IL-1β-Induced Cytokine Release in Human PBMCs
(§2) To evaluate the effect and potency of IRAK4 inhibitors on blocking disease-relevant pathways in human primary immune cells, we stimulated human PBMCs (peripheral blood mononuclear cells) with LPS (TLR4 agonist) or IL-1β (IL-1R ligand) and measured the release of the proinflammatory cytokines IL-6 and TNF-α. Briefly, PBMCs were isolated from human blood, donated from healthy individuals, using LymphoPrep density gradient and plated at a cell density of 200 000 cells/well (for LPS assay) or 300 000 cells/well (for IL-1β assay) in 96-well culture plates. Cells were incubated for 1 h with serial dilutions of IRAK4 inhibitor or vehicle (DMSO) prior to stimulation of cells with 0.11 ng/mL LPS (derived from E. coli) or 1 ng/mL recombinant human IL-1β. After 4 h of LPS stimulation or 20 h of […] stimulation, the supernatant was collected and the levels of the proinflammatory cytokines TNF-α, IL-8 and IL-6 were measured by Mesoscale Discovery (MSD) multiplex assay. Dose-response curves were plotted and IC50 values were calculated with 4-parameter curve fit using GraphPad Prism 8 (see Table 3).

In experiment [3] the test system is IL-1β stimulated IL-8 release in hTHP1 cells. Nature of the experiment: IL-1β-induced IL-8 release in human THP-1 monocyte cell line. The conditions noted are these: Homo sapiens, THP-1, 18 h, THP-1 cells, IL-1β 1.8 ng/mL, geometric mean of at least n=2, * n = 1, read-out: hTHP1, IL1β stim, IL8 release red. IC50.
Experiment [4] relates to human PBMCs stimulated with IL-1β. Nature of the experiment: IL-1β-induced cytokine release in human PBMCs. The settings on record: PBMC, 1 ng/mL IL-1β, 20 h.
Excerpt: as §1, §2

IRAK4 auto-phosphorylation, sequence (Q9NWZ3 whole entry): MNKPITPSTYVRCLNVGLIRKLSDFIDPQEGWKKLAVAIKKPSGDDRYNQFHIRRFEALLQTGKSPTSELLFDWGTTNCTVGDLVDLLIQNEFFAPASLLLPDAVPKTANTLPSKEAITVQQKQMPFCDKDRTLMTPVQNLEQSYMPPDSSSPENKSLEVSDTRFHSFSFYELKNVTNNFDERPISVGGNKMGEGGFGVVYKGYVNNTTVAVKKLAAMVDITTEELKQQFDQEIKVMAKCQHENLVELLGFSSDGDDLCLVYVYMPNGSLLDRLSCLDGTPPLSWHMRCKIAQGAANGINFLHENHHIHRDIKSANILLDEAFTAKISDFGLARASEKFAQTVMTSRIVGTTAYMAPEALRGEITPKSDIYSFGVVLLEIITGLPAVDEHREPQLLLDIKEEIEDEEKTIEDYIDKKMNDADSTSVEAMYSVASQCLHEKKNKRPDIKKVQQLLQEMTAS

For `COc1cc2nn([C@@H]3CC[C@@H](O)C[C@H]3C)cc2cc1C(=O)Nc1cnc2cccnn12` [Example 89, 2-((1R,2R,4R)-4-hydroxy-2-methylcyclohexyl)-N-(imidazo[1,2-b]pyridazin-3-yl)-6-methoxy-2H-indazole-5-carboxamide], the IC50 is 36 nM in experiment [1]; 32 nM in experiment [2] (read-out: IC50, IL-6 read-out, LPS stimulation); 39 nM in experiment [2] (read-out: IC50, TNF-α read-out, LPS stimulation); 31 nM in experiment [3]; 22 nM in experiment [4] (read-out: IC50, IL-6 read-out, IL-1β stimulation); 30 nM in experiment [4] (read-out: IC50, IL-8 read-out, IL-1β stimulation).

In general, IC50 refers to the concentration at which inhibition is half-maximal.
